Assay results reported in patent US20250114345A1, “COMPOUNDS AND COMPOSITIONS AS CBP/P300 DEGRADERS AND USES THEREOF” (Oncopia Therapeutics, Inc. d/b/a/ SK Life Science Labs, priority 2023, published 2025).

Target: T1, p300 (Homo sapiens, UniProt Q09472)
T1 construct: host or cells: A549 P300 HiBit cells
Assay: P300 degradation, HiBit technology in A549 P300 HiBit cells (2 h)
Format: cell-based
Settings: 2 hrs post treatment; for Dmax: A549, A549 P300 HiBit cells; for DC50: A549 P300 HiBit cells
Procedure: p300 and CBP degradation potency and Dmax were determined using in cell western (ICW) assay technology in H1299 cells or HiBit technology in A549 HiBit cells.
A549 P300 HiBit and A549 CBP HiBit cells were plated in separate 384-well, TC treated, white-opaque, flat-bottomed microplate. Cells were plated at a cell density of 0.2×10^4 cells per well in assay media comprised of F-12K, 10% heat inactivated FBS, and 1% penicillin/streptomycin. Assay microplates containing HiBit cells were placed in a 37° C., 5% CO2, tissue culture incubator and left to equilibrate overnight. The next day cells were treated with serial dilutions of test compound made up of 10 mM stock solutions in DMSO. 384-Well plates containing treated cells were then placed back into a 37° C., 5% CO2, tissue culture incubator. Assay microplates containing A549 P300 HiBit cells were incubated for 2 hrs post treatment before P300 destruction was assessed, while microplates containing A549 CBP HiBit cells were incubated for 24 hrs post treatment before CBP destruction was determined. On the day of each assay time point, microplates were removed from the tissue culture incubator and prepared HiBit Lytic detection buffer (Promega, cat #N3O40) was added to each plate. Plates were covered with aluminum foil and incubated for ten minutes at room temperature on an orbital shaker. After incubation, luminescent signal of each plate was measured using the Envision instrument (Perkin Elmer).

T1 sequence (Q09472 whole entry): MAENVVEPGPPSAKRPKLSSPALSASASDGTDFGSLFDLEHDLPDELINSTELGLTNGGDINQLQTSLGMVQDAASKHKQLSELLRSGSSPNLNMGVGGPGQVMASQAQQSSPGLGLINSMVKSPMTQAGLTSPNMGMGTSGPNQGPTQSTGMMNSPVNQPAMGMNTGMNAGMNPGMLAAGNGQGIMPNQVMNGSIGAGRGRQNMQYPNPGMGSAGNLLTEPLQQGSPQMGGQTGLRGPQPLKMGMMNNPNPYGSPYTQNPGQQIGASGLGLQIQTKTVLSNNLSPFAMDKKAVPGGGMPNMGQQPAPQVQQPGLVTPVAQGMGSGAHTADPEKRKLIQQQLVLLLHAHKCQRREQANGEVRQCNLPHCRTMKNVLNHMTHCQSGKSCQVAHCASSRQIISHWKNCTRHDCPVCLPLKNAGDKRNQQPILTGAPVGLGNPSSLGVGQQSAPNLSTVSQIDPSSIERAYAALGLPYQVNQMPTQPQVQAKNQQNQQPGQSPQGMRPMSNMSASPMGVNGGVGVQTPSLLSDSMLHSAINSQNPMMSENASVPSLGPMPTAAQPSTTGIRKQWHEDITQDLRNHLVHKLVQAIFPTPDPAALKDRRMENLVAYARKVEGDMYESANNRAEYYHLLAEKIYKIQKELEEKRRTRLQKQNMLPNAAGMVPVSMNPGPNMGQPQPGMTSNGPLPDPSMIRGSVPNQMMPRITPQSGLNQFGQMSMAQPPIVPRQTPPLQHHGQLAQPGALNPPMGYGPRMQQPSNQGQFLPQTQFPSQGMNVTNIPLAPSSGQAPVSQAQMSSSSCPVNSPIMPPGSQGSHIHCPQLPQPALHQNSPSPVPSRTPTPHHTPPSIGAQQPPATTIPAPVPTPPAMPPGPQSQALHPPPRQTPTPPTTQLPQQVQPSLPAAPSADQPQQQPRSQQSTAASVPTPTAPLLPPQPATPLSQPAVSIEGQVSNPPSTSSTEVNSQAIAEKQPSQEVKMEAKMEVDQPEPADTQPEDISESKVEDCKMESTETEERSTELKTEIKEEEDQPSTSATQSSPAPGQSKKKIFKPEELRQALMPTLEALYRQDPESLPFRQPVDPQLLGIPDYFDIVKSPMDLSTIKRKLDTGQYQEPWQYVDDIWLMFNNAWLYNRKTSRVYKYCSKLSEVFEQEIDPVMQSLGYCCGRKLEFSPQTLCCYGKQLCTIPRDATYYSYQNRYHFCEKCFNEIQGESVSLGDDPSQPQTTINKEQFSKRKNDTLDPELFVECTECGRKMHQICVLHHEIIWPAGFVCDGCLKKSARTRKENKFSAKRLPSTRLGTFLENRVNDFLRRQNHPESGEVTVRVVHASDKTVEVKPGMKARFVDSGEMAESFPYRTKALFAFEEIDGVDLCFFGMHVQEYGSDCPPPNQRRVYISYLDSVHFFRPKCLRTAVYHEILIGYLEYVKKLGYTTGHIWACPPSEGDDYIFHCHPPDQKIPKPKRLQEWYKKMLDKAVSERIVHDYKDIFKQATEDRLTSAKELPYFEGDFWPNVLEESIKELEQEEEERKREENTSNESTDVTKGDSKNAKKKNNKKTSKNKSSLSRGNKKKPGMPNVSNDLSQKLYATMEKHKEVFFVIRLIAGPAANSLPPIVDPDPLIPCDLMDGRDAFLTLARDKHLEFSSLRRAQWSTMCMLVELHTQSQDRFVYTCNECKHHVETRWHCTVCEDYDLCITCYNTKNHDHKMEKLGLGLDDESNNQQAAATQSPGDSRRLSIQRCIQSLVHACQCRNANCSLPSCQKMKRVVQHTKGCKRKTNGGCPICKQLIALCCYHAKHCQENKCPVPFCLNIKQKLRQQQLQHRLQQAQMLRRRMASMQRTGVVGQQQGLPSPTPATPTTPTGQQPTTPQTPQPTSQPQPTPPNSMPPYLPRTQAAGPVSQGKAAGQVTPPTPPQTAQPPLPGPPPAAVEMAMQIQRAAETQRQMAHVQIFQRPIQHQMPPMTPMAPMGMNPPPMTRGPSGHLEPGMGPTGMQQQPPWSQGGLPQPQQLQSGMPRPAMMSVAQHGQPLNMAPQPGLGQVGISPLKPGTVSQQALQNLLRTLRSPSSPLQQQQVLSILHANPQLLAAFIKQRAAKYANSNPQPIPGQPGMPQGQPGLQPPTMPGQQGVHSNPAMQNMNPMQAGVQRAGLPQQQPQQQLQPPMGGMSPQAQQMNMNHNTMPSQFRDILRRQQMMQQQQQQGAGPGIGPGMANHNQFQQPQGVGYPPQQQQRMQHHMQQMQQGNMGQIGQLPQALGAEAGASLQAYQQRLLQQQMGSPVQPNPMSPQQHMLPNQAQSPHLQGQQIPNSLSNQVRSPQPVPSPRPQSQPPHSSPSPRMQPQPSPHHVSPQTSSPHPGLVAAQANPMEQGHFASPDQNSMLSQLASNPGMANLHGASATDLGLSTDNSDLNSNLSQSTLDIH

SMILES | Dmax [%] | DC50 [nM]
CC(C)c1cc(-c2cccc3cc(-c4ccc(C(=O)NCC#Cc5cc6c(cn5)cnn6C5CCC(=O)NC5=O)nc4)ncc23)cc2c1n(C)c(=O)n2C (stereo not drawn) [Example A6, N-(3-(1-(2,6-Dioxopiperidin-3-yl)-1H-pyrazolo[4,3-c]pyridin-6-yl)prop-2-yn-1-yl)-5-(8-(7-isopropyl-1,3-dimethyl-2-oxo-2,3-dihydro-1H-benzo[d]imidazol-5-yl)isoquinolin-3-yl)picolinamide] | 60 to 79 | 1 to 9.9
Cc1cc2cnn(C3CCC(=O)NC3=O)c2cc1C#CCNC(=O)c1ccc(-c2cc3cccc(-c4cc(C(C)C)c5c(c4)n(C)c(=O)n5C)c3cn2)cn1 (stereo not drawn) [Example A8, N-(3-(1-(2,6-Dioxopiperidin-3-yl)-5-methyl-1H-indazol-6-yl)prop-2-yn-1-yl)-5-(8-(7-isopropyl-1,3-dimethyl-2-oxo-2,3-dihydro-1H-benzo[d]imidazol-5-yl)isoquinolin-3-yl)picolinamide] | 60 to 79 | 10 to 99
CC(C)c1cc(-c2cccc3cc(-c4ccc(C(=O)NCC#Cc5cc(N(C)C)c6cnn(C7CCC(=O)NC7=O)c6c5)nc4)ncc23)cc2c1n(C)c(=O)n2C (stereo not drawn) [Example A9, N-(3-(4-(Dimethylamino)-1-(2,6-dioxopiperidin-3-yl)-1H-indazol-6-yl)prop-2-yn-1-yl)-5-(8-(7-isopropyl-1,3-dimethyl-2-oxo-2,3-dihydro-1H-benzo[d]imidazol-5-yl)isoquinolin-3-yl)picolinamide] | 60 to 79 | 10 to 99
CC(C)c1cc(-c2cccc3cc(-c4ccc(C(=O)NCC#Cc5ccc6cnn(C7CCC(=O)NC7=O)c6n5)nc4)ncc23)cc2c1n(C)c(=O)n2C (stereo not drawn) [Example A12, N-(3-(1-(2,6-Dioxopiperidin-3-yl)-1H-pyrazolo[3,4-b]pyridin-6-yl)prop-2-yn-1-yl)-5-(8-(7-isopropyl-1,3-dimethyl-2-oxo-2,3-dihydro-1H-benzo[d]imidazol-5-yl)isoquinolin-3-yl)picolinamide] | 20 to 39 | 10 to 99
CC(C)c1cc(-c2cccc3cc(-c4ccc(C(=O)NCC#Cc5cnc6ccn(C7CCC(=O)NC7=O)c6c5)nc4)ncc23)cc2c1n(C)c(=O)n2C (stereo not drawn) [Example A13, N-(3-(1-(2,6-Dioxopiperidin-3-yl)-1H-pyrrolo[3,2-b]pyridin-6-yl)prop-2-yn-1-yl)-5-(8-(7-isopropyl-1,3-dimethyl-2-oxo-2,3-dihydro-1H-benzo[d]imidazol-5-yl)isoquinolin-3-yl)picolinamide] | > 80 | 1 to 9.9
CC(C)c1cc(-c2cccc3cc(-c4ccc(C(=O)NCC#Cc5ccc6c(C#N)cn(C7CCC(=O)NC7=O)c6c5)nc4)ncc23)cc2c1n(C)c(=O)n2C (stereo not drawn) [Example A19, N-(3-(3-Cyano-1-(2,6-dioxopiperidin-3-yl)-1H-indol-6-yl)prop-2-yn-1-yl)-5-(8-(7-isopropyl-1,3-dimethyl-2-oxo-2,3-dihydro-1H-benzo[d]imidazol-5-yl)isoquinolin-3-yl)picolinamide] | 60 to 79 | 100 to 999
CC(C)c1cc(-c2cccc3cc(-c4ccc(C(=O)NCC#Cc5cnc6cnn(C7CCC(=O)NC7=O)c6c5)nc4)ncc23)cc2c1n(C)c(=O)n2C (stereo not drawn) [Example A20, N-(3-(1-(2,6-Dioxopiperidin-3-yl)-1H-pyrazolo[4,3-b]pyridin-6-yl)prop-2-yn-1-yl)-5-(8-(7-isopropyl-1,3-dimethyl-2-oxo-2,3-dihydro-1H-benzo[d]imidazol-5-yl)isoquinolin-3-yl)picolinamide] | 60 to 79 | 1 to 9.9
CC(C)c1cc(-c2cccc3cc(-c4ccc(C(=O)NCC#Cc5cc(C#N)c6cnn(C7CCC(=O)NC7=O)c6c5)nc4)ncc23)cc2c1n(C)c(=O)n2C (stereo not drawn) [Example A21, N-(3-(4-Cyano-1-(2,6-dioxopiperidin-3-yl)-1H-indazol-6-yl)prop-2-yn-1-yl)-5-(8-(7-isopropyl-1,3-dimethyl-2-oxo-2,3-dihydro-1H-benzo[d]imidazol-5-yl)isoquinolin-3-yl)picolinamide] | 60 to 79 | 100 to 999
CC(C)c1cc(-c2cccc3cc(-c4ccc(C(=O)NCC#Cc5cc6c(ccn6C6CCC(=O)NC6=O)cn5)nc4)ncc23)cc2c1n(C)c(=O)n2C (stereo not drawn) [Example A22, N-(3-(1-(2,6-Dioxopiperidin-3-yl)-1H-pyrrolo[3,2-c]pyridin-6-yl)prop-2-yn-1-yl)-5-(8-(7-isopropyl-1,3-dimethyl-2-oxo-2,3-dihydro-1H-benzo[d]imidazol-5-yl)isoquinolin-3-yl)picolinamide] | 20 to 39 | 10 to 99
COc1cc2cnn(C3CCC(=O)NC3=O)c2cc1C#CCNC(=O)c1ccc(-c2cc3cccc(-c4cc(C(C)C)c5c(c4)n(C)c(=O)n5C)c3cn2)cn1 (stereo not drawn) [Example A27, N-(3-(1-(2,6-Dioxopiperidin-3-yl)-5-methoxy-1H-indazol-6-yl)prop-2-yn-1-yl)-5-(8-(7-isopropyl-1,3-dimethyl-2-oxo-2,3-dihydro-1H-benzo[d]imidazol-5-yl)isoquinolin-3-yl)picolinamide] | 60 to 79 | 1 to 9.9
COc1cc(-c2cc3cccc(-c4cc(C(C)C)c5c(c4)n(C)c(=O)n5C)c3cn2)cnc1C(=O)NCC#Cc1ccc2c(c1)c(C1CCC(=O)NC1=O)nn2C (stereo not drawn) [Example A30, N-(3-(3-(2,6-Dioxopiperidin-3-yl)-1-methyl-1H-indazol-5-yl)prop-2-yn-1-yl)-5-(8-(7-isopropyl-1,3-dimethyl-2-oxo-2,3-dihydro-1H-benzo[d]imidazol-5-yl)isoquinolin-3-yl)-3-methoxypicolinamide] | > 80 | 1 to 9.9
CC(C)c1cc(-c2cccc3cc(-c4ccc(C(=O)NCC#Cc5cc6c(c(NC7CCC(=O)NC7=O)c5)OCC6)nc4)ncc23)cc2c1n(C)c(=O)n2C (stereo not drawn) [Example A32, N-(3-(7-((2,6-Dioxopiperidin-3-yl)amino)-2,3-dihydrobenzofuran-5-yl)prop-2-yn-1-yl)-5-(8-(7-isopropyl-1,3-dimethyl-2-oxo-2,3-dihydro-1H-benzo[d]imidazol-5-yl)isoquinolin-3-yl)picolinamide] | > 80 | 1 to 9.9

The next lines start with the values.

Dmax [%] | DC50 [nM] | SMILES
> 80 | 10 to 99 | COc1nn(C2CCC(=O)NC2=O)c2cc(C#CCNC(=O)c3ccc(-c4cc5cccc(-c6cc(C(C)C)c7c(c6)n(C)c(=O)n7C)c5cn4)cn3)ccc12 (stereo not drawn) [Example A4, N-(3-(1-(2,6-Dioxopiperidin-3-yl)-3-methoxy-1H-indazol-6-yl)prop-2-yn-1-yl)-5-(8-(7-isopropyl-1,3-dimethyl-2-oxo-2,3-dihydro-1H-benzo[d]imidazol-5-yl)isoquinolin-3-yl)picolinamide]
> 80 | 10 to 99 | CC(C)c1cc(-c2cccc3cc(-c4ccc(C(=O)NCC#Cc5ccc6c(C#N)nn(C7CCC(=O)NC7=O)c6c5)nc4)ncc23)cc2c1n(C)c(=O)n2C (stereo not drawn) [Example A7, N-(3-(3-Cyano-1-(2,6-dioxopiperidin-3-yl)-1H-indazol-6-yl)prop-2-yn-1-yl)-5-(8-(7-isopropyl-1,3-dimethyl-2-oxo-2,3-dihydro-1H-benzo[d]imidazol-5-yl)isoquinolin-3-yl)picolinamide]
< 20 | > 1000 | CC(C)c1cc(-c2cccc3cc(-c4ccc(C(=O)NCC#Cc5ccc6c(c5)nnn6C5CCC(=O)NC5=O)nc4)ncc23)cc2c1n(C)c(=O)n2C (stereo not drawn) [Example A17, N-(3-(1-(2,6-Dioxopiperidin-3-yl)-1H-benzo[d][1,2,3]triazol-5-yl)prop-2-yn-1-yl)-5-(8-(7-isopropyl-1,3-dimethyl-2-oxo-2,3-dihydro-1H-benzo[d]imidazol-5-yl)isoquinolin-3-yl)picolinamide]
60 to 79 | 10 to 99 | COc1cc(C#CCNC(=O)c2ccc(-c3cc4cccc(-c5cc(C(C)C)c6c(c5)n(C)c(=O)n6C)c4cn3)cn2)cc2c1cnn2C1CCC(=O)NC1=O (stereo not drawn) [Example A26, N-(3-(1-(2,6-Dioxopiperidin-3-yl)-4-methoxy-1H-indazol-6-yl)prop-2-yn-1-yl)-5-(8-(7-isopropyl-1,3-dimethyl-2-oxo-2,3-dihydro-1H-benzo[d]imidazol-5-yl)isoquinolin-3-yl)picolinamide]
60 to 79 | 1 to 9.9 | CC(C)c1cc(-c2cccc3cc(-c4ccc(C(=O)NCC#Cc5ccc6c(CN(C)C)nn(C7CCC(=O)NC7=O)c6c5)nc4)ncc23)cc2c1n(C)c(=O)n2C (stereo not drawn) [Example A28, N-(3-(3-((Dimethylamino)methyl)-1-(2,6-dioxopiperidin-3-yl)-1H-indazol-6-yl)prop-2-yn-1-yl)-5-(8-(7-isopropyl-1,3-dimethyl-2-oxo-2,3-dihydro-1H-benzo[d]imidazol-5-yl)isoquinolin-3-yl)picolinamide]
20 to 39 | 1 to 9.9 | CC(C)c1cc(-c2cccc3cc(-c4ccc(C(=O)NCC#Cc5ccc6c(C(F)F)nn(C7CCC(=O)NC7=O)c6c5)nc4)ncc23)cc2c1n(C)c(=O)n2C (stereo not drawn) [Example A31, N-(3-(3-(Difluoromethyl)-1-(2,6-dioxopiperidin-3-yl)-1H-indazol-6-yl)prop-2-yn-1-yl)-5-(8-(7-isopropyl-1,3-dimethyl-2-oxo-2,3-dihydro-1H-benzo[d]imidazol-5-yl)isoquinolin-3-yl)picolinamide]
